# Earlier results as cited in patent US20090088367A1, “Treatment of Insulin Resistance/Metabolic Syndrome to Alleviate the Risks of Dementia” (Burnham Institute For Medical Research, priority 2004, published 2009).
# Tests used:
# [1] = system: neurodegeneration induced by beta-amyloid(1-40); conditions: Miguel-Hidalgo et al., Brain Res 2002
# [2] = system: APP/PS1 double mutant mice; conditions: transgenic mouse with mutant amyloid precursor protein and presenilin I; Tanila et al., J Neurochem 2003
# tau hyperphosphorylation = conditions: in culture; okadaic acid-induced changes; Iqbal et al., J Neurochem 2003
smiles,measurement,setting,value
"CC12CC3CC(C)(C1)CC(N)(C3)C2 [memantine, 1-amino-3,5-dimethyladamantine]",protection from intrahippocampal injection of Aβ,[1],offer protection
same,performance on behavioral tests (T-maze and Morris water maze),[2],improved performance
same,tau hyperphosphorylation,tau hyperphosphorylation,reduce tau hyperphosphorylation
